From patent US20050209336A1, “EP2 receptor agonists” (priority 2003, published 2005)
Like-named read-outs stand apart in the source and are kept apart here.

Tests used:
[1] = test system: IL-2 production by OKT3 activated T cells; test: Lymphocyte assay: IL-2 production by anti-CD3 (OKT3) stimulated T cells; assay type: cell-based, human; settings: Homo sapiens, T-cell, 24 h, inhibition of IL-2 production
Text: (§1) Lymphocytes are mononuclear leukocytes, which participate in specific immune responses to foreign antigens and in the manifestation of auto-immune diseases. T lymphocytes produce IL-2, a key factor for lymphocyte activation and proliferation, in response to antigen stimulation via the CD3-T cell receptor complex and the pathway involved in this response is the NF-AT. […] A lymphocyte assay was designed to model this response and to determine the effect of test compound on IL-2 production by anti-CD3-stimulated T cells isolated from peripheral blood. This assay uses a sub-optimal dose of an anti-CD3 monoclonal antibody (OKT3, 25 ng/ml) immobilised to a 96-well plate to stimulate a T cell response. The level of IL-2 released into the cell culture supernatants was quantified using a standard sandwich ELISA. Similarly, other cytokines such as TNFα and IFN-γ can also be measured in the same assay.
(§2) Human peripheral blood mononuclear cells from healthy volunteers were isolated from whole blood by Ficoll-Hypaque density centrifugation and adherence to plastic. The non-adherent lymphocyte fraction was used to set up the lymphocyte assay and the adherent monocytes were then recovered by scraping and subsequently used in the monocyte assay.
(§3) Lymphocytes were then seeded to a 96-well plate pre-coated with anti-CD3 monoclonal antibody (OKT3) at 25 ng/ml and immediately, the test compounds (Peak 1, mixture 1 acid; Peak 1, mixture 2 acid; AH-13205 racemate; PGE2) in appropriate dilutions were added to corresponding wells according to the experimental design. The plate was incubated for 24 hours at 37° C. with 5% CO2 in air and supernatants were recovered for ELISA analysis at the end of incubation period. The levels of IFN-γ was assessed by using the ProteoPlex 16 well human cytokine array assay kit according to the manufacturer's instruction.

human EP2 receptor = target: T1, human EP2 receptor (Homo sapiens, UniProt P43116); test: cAMP production in HEK cells stably expressing the human EP2 receptor; assay type: cell-based; settings: 15 min stimulation, 4 experiments
T1 construct: expressed in transfected cells; host or cells: HEK cells (HEK-EP2)
Procedure: The following describes an in vitro assay to determine the effect of compounds on cyclase production, that is, to determine their functional efficacy at the EP2 receptor.
HEK cells stably expressing the human EP2 receptor were used for these assays. HEK-EP2 cells were cultured in 96-well, poly-L-lysine coated plates at a density of 50,000 cells/well, and grown to confluence in humidified […] at 37° C. Culture medium was DMEM supplemented with 10% foetal bovine serum, 100 U/ml penicillin, […], 2.5 µg/ml fungizone, 2 mM glutamine, 250 µg/ml geneticin and 200 µg/ml zeocin.
On reaching confluence, culture media was rinsed off using DMEM with no additions, before 175 µl assay buffer (DMEM containing 1 mM 3-isobutyl-1-methylxanthine and 3 µM indomethacin) was added to each well. This was allowed to incubate for 1 hr before the cells were stimulated with the test compounds (in triplicate) at final concentrations of 10^−9M to 10^−5M for 15 minutes. The assay was terminated by the addition of 25 µl 1M hydrochloric acid. Plates were then frozen for a minimum of 12 hours or until required for radioligand displacement assay.
Plates were thawed quickly at 37° C., and neutralised with 25 µl 1M sodium hydroxide. 30 µl of supernatant was transferred to 96-well Millipore (MAFNOB) plates coated with 0.1% Polyethylenimine. These supernatants were diluted by addition of 90[…]1 cAMP assay buffer (50 mM Tris, 5 mM EDTA, pH 7.0). A cAMP standard curve (10^−11M to 10^−5M) was constructed. 15 µl of 3′:5′-cAMP-dependent protein kinase (final concentration 8 µg/well), and 15 µl [^3H]-cAMP (final concentration 2 nM/well) were added to each well.
Plates were incubated on ice for 2 hours, before bound and free radiolabel were separated by vacuum filtration harvesting on the Millipore manifold, using ice cold water as the termination buffer. Filter plates were allowed to dry overnight, before addition of 50 µl Microscint. Radioactivity was determined using the Microbeta Trilux scintillation counter. cAMP accumulation was determined from the standard curve, and the values plotted as pmoles cAMP/well.

[2] = test system: TNFα production by lymphocytes; test: Lymphocyte assay: TNFα production; assay type: cell-based, human; settings: Homo sapiens, Lymphocyte, inhibition of TNFα production by lymphocytes, mean of three donors
Text: as §1, §2, §3

lymphocyte proliferation = test: Lymphocyte proliferation driven by immobilised anti-CD3 antibody; assay type: cell-based, human; settings: Homo sapiens, inhibition of lymphocyte proliferation, 72 h, mean of three donors
Text: as §1, §2
For the measurement of lymphocyte proliferation driven by immobilised anti-CD3 monoclonal antibody, the assay was set up in the same way as for the measurement of IL-2 release, except that the cells were cultured for 72 hours in the presence or absence of test compounds. Four hours prior to the termination of the proliferation assay, a novel tetrazolium compound solution supplied by Promega in the format of Cell Proliferation Assay Kit was added to individual wells according to the manufacturer's instruction. The plate was then placed back in the incubator for the remaining 4 hours and the […] reaction was measured using a spectrophotometer at an absorbent wavelength of 490 nm (SpectraMax, Molecular Devices) according to the manufacturer's instruction.

[3] = mean of four donors (FIG. 9, table 7), read-out: Mean EC50
[4] = log scale, mean of four donors (FIG. 9, table 7), read-out: Mean Log (EC50) (converted)
[5] = log scale, read-out: Mean Log (EC50) (converted)

T1 sequence (P43116 whole entry): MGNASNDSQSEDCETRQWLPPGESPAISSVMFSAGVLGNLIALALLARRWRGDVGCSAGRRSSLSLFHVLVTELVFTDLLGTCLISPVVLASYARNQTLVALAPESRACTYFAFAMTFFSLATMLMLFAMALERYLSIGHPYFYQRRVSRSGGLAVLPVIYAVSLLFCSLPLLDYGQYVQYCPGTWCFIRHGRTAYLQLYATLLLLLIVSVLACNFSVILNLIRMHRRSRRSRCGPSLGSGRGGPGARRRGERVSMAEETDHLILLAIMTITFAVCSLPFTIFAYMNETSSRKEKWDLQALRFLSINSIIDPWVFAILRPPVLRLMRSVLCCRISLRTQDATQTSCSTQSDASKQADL

| EC50 [1, 3] | EC50 [1, 4] | EC50 (human EP2 receptor; [5]) | EC50 ([1]; mean of three to five donors (FIG. 10, table 8), read-out: Mean EC50) | EC50 ([1]; log scale, mean of three to five donors (FIG. 10, table 8), read-out: Mean Log (EC50) (converted)) | EC50 (human EP2 receptor; read-out: Mean EC50) | EC50 ([2]; read-out: Mean EC50) | EC50 [2, 5] | SMILES | EC50 (lymphocyte proliferation; read-out: Mean EC50) | EC50 (lymphocyte proliferation; [5]) |
| --- | --- | --- | --- | --- | --- | --- | --- | --- | --- | --- |
| 2820 nM | 2820 nM | 32.4 nM | – | – | – | – | – | CCCCCC(O)c1ccc(C2CCC(=O)C2CCCCCCC(=O)O)cc1 (racemic) [AH13205, (±)-trans-2-[4-(1-hydroxyhexyl)phenyl]-5-oxo-cyclopentaneheptanoic acid, reference compound] | – | – |
| 986 nM | 986 nM | 9.77 nM | 1320 nM | 1320 nM | 10 nM | 2330 nM | 2330 nM | CCCCC[C@H](O)c1ccc([C@H]2CCC(=O)[C@@H]2CCCCCCC(=O)O)cc1 (single isomer, unassigned) [Peak 1, Mixture 1 acid] | 10000 nM | 10000 nM |
| – | – | – | – | – | 56 nM | – | – | CCCCC[C@@H](O)c1ccc([C@H]2CCC(=O)[C@@H]2CCCCCCC(=O)O)cc1 (single isomer, unassigned) [Peak 1, Mixture 2 acid] | – | – |
